How the values were obtained:
[1] = In vitro metabolic stability in liver microsomes (calculation of CL and Fmax); format: in vitro ADME, human; conditions: 1 μM, maximal oral bioavailability calculated from half-life
Procedure: In Vitro Metabolic Stability Assays Determination of In Vitro Metabolic Stability in Microsomes (Including Calculation of Hepatic In Vivo Blood Clearance (CL) and of Maximal Oral Bioavailability (Fmax))
The metabolic assay was started shortly afterwards by adding the test compound to the incubation at a final volume of 1 mL. Organic solvent in the incubations was limited to ≤0.01% dimethylsulfoxide (DMSO) and ≤1% acetonitrile. […] Samples were frozen at −20° C. overnight, subsequently centrifuged for 15 minutes at 3000 rpm and the supernatant was analyzed with an Agilent 1200 HPLC-system with LCMS/MS detection.
The half-life of a test compound was determined from the concentration-time plot. From the half-life (kel: slope of concentration-time plot; half-life=ln 2/kel) the intrinsic clearances were calculated. Together with the additional parameters liver blood flow, specific liver weight and microsomal protein content the hepatic in vivo blood clearance (CL) and the maximal oral bioavailability (Fmax) were calculated for the different species.
(§1) Metabolic instability is often the main clearance mechanism of xenobiotica leading to a high CL and low bioavailability which may eventually result in a short half-life and a low exposure after oral administration. Thus, reducing the susceptibility of metabolic degradation usually leads to a more favourable pharmacokinetic profile. When using liver microsomes as incubation matrix main phase I metabolic reactions, typically oxidoreductive reactions by cytochrome P450 enzymes and flavin mono-oxygenases (FMO) and hydrolytic reactions by esterases/amidases/epoxidhydrolases, are described. When the incubation of the test compound is performed in a hepatocyte matrix all potential hepatic metabolic processes (phase I and phase II) are covered.

rat hepatocytes = experiment: In vitro metabolic stability in rat hepatocytes; format: in vitro ADME, Han Wistar rats; conditions: 1 μM, maximal oral bioavailability calculated from half-life
Procedure: Determination of In Vitro Metabolic Stability in Rat Hepatocytes (Including Calculation of Hepatic In Vivo Blood Clearance (CL))
Hepatocytes from Han Wistar rats were isolated via a 2-step perfusion method. After perfusion, the liver was carefully removed from the rat: the liver capsule was opened and the hepatocytes were gently shaken out into a Petri dish with ice-cold Williams' medium E (WME). The resulting cell suspension was filtered through sterile gaze in 50 mL falcon tubes and centrifuged at 50×g for 3 min at room temperature. The cell pellet was resuspended in 30 mL WME and centrifuged through a Percoll® gradient for 2 times at 100×g. The hepatocytes were washed again with WME and resuspended in medium containing 5% FCS. Cell viability was determined by trypan blue exclusion. […] The test compound was added to a final concentration of 1 μM. […] Samples were frozen at −20° C. overnight, subsequently centrifuged for 15 minutes at 3000 rpm and the supernatant was analyzed with an Agilent 1200 HPLC-system with LCMS/MS detection.
The half-life of a test compound was determined from the concentration-time plot. From the half-life (kel: slope of concentration-time plot; half-life=ln 2/kel) the intrinsic clearances were calculated. Together with the additional parameters liver blood flow, amount of liver cells in vivo and in vitro.
as §1

[2] = Human liver cytosol stability assay; format: in vitro ADME; conditions: 4 h incubation
Procedure: Human Liver Cytosol Stability Assay
Method description: Human liver cytosol (pooled, >30 male and female donors) was incubated with individual test compounds in order to compare the extent of depletion of test compound and formation of the respective oxidised metabolite.
An incubation volume of 1000 μL was used. The test compound was added from a stock solution in acetonitrile at 1 or 10 μM concentration in the incubation. Incubations were performed at 37° C. Reactions were stopped at 0 h and 4 h after incubation by addition of 100 μL acetonitrile to 250 μL of incubation mixture. Precipitated proteins were removed by centrifugation at approximately 3000 rpm. The supernatants were stored at approximately −20° C. until they were analysed. […]
Data analysis: The depletion of the test compound and formation of the corresponding metabolites were determined by decrease or increase of the corresponding peak area in the chromatogram after UV detection at approximately 300 nm 4 h after incubation compared to that at 0 h after incubation. […]

[3] = clinical PhII trials; attributed to blockade of P2X2/3 channels; cited from earlier work
vaginal hyperalgesia = experiment: Rat dyspareunia model (visceromotor response to vaginal distension); format: in vivo, Sprague Dawley rats; conditions: 15 mg/kg oral b.i.d. during 2 weeks
Text: The visceromotor response (VMR) to vaginal distension was used in conscious animals as an objective measure of vaginal sensitivity. […] To measure VMR response, 2 Teflon-coated wire electrodes were sutured in the external oblique abdominal muscle, and tunneled subcutaneously to be exteriorized at the base of the neck for future access. On the day of VMR assessment, a lubricated small balloon (1 cm length) was inserted into the mid-vaginal canal. The balloon catheter was secured to the base of the tail and connected to a volume controller/timing device (infusion pump) for balloon distension. The vaginal balloon was inflated to ramp intensities of distension (0.05 ml increments every 20 sec.) to a maximal volume of 0.8 ml. The electrodes were connected to an amplifier (Animal Bio Amp, ADInstruments), and the abdominal electromyographic signal was recorded using a data acquisition system (PowerLab, ADInstruments) for off-line analysis using LabChart version 7. The number of abdominal muscle contractions was counted manually for each 0.1 ml distension step, as an index of vaginal pain. […] All data were expressed as mean±standard deviation (s.d.), for the number (n) of measured rats per group. […] Planned comparison of means (matched-volume versus vehicle) was performed using a Bonferroni post hoc test, provided that a main effect was detected. […]

Row | SMILES | Human liver microsome Fmax [1] [%] | Rat hepatocyte Fmax (rat hepatocytes) [%] | Test compound turnover after 4 h [2] [%] | taste side effect in treated subjects [3] | Vaginal hyperalgesia compared to vehicle-treated animals (vaginal hyperalgesia)
1 | Cc1cnc(-c2cc(OC(C)C(C)O)cc(C(=O)N[C@H](C)c3cnc(C(F)(F)F)nc3)c2)s1 (single isomer, unassigned) [Example 339] | 94 | 52 |  |  | 
2 | CCc1cnc(-c2cc(OC[C@H]3CN(C)CCO3)cc(C(=O)N[C@H](C)c3ccc(C(F)(F)F)nn3)c2)s1 [Example 419, 3-(5-ethyl-1,3-thiazol-2-yl)-5-{[(2R)-4-methyl-morpholin-2-yl]methoxy}-N-{(1R)-1-[6-(trifluoromethyl)pyridazin-3-yl]ethyl} benzamide] | 74 | 51 |  |  | 
3 | Cc1cnc(-c2cc(O[C@H]3CCOC3)cc(C(=O)N[C@H](C)c3cnc(C(F)(F)F)nc3)c2)s1 [Example 26, 3-(5-Methyl-1,3-thiazol-2-yl)-5-[(3S)-tetrahydrofuran-3-yloxy]-N-{(1R)-1-[2-(trifluoromethyl)pyrimidin-5-yl]ethyl}benzamide] | 67 | 56 | 0.9 |  | 
4 | Cc1cnc(-c2cc(OC(C)C(C)O)cc(C(=O)N[C@H](C)c3cnc(C(F)(F)F)nc3)c2)s1 (single isomer, unassigned) [Example 340] | 90 | 64 |  |  | 
5 | COc1cc(C(C)C)c(Oc2cnc(N)nc2N)cc1S(N)(=O)=O [AF-219] |  |  |  | taste disturbances | 
6 | Cc1cnc(-c2cc(OC(C)C(C)O)cc(C(=O)N[C@H](C)c3cnc(C(F)(F)F)nc3)c2)s1 (single isomer, unassigned) [Example 163] | 100 | 53 |  |  | 
7 | Cc1cnc(-c2cc(O[C@@H]3CCOC3)cc(C(=O)N[C@H](C)c3cnc(C(F)(F)F)nc3)c2)s1 [Example 11, 3-(5-Methyl-1,3-thiazol-2-yl)-5-[(3R)-tetrahydrofuran-3-yloxy]-N-{(1R)-1-[2-(trifluoromethyl)pyrimidin-5-yl]ethyl}benzamide] | 57 | 52 | 0.9 |  | decreased vaginal hyperalgesia compared to vehicle-treated animals
8 | Cc1cnc(-c2cc(OC(C)C(C)O)cc(C(=O)N[C@H](C)c3ccc(C(F)(F)F)nn3)c2)s1 (single isomer, unassigned) [Example 183] | 74 | 43 |  |  | 

Reference: patent publication US10183937B2, “1,3-thiazol-2-yl substituted benzamides” (BAYER AKTIENGESELLSCHAFT, priority 2014, dated 2019)
